In ChEMBL document CHEMBL4706681, “New 2-Pyrazoline and Hydrazone Derivatives as Potent and Selective Monoamine Oxidase A Inhibitors” (J Med Chem, 2021) one finds Ki and Ratio Ki data, which are given here for 32 compounds.

Experiment [1] concerns the target T1, Amine oxidase [flavin-containing] B (Homo sapiens, UniProt P27338).
T1 sequence (P27338 whole entry): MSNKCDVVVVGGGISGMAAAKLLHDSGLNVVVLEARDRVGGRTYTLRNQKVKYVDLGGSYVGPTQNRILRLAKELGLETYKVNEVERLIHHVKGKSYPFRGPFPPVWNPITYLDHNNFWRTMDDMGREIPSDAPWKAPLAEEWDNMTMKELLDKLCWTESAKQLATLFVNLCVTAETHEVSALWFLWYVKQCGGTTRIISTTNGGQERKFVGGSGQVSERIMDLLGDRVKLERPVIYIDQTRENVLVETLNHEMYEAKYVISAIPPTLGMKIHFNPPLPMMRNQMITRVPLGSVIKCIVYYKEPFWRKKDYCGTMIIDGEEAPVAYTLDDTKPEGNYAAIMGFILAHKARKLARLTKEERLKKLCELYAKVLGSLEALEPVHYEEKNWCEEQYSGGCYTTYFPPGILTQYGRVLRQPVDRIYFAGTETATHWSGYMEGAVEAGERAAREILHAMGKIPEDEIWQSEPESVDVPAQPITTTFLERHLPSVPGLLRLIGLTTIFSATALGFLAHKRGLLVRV
Description: Inhibition of recombinant human MAO-B expressed in baculovirus infected BTI insect cells using p-tyramine as substrate incubated for 30 mins by Amplex red reagent based fluorescence analysis. The format is cell-based.

Experiment [2] has as its target T2, Amine oxidase [flavin-containing] A (Homo sapiens, UniProt P21397).
T2 sequence (P21397 whole entry): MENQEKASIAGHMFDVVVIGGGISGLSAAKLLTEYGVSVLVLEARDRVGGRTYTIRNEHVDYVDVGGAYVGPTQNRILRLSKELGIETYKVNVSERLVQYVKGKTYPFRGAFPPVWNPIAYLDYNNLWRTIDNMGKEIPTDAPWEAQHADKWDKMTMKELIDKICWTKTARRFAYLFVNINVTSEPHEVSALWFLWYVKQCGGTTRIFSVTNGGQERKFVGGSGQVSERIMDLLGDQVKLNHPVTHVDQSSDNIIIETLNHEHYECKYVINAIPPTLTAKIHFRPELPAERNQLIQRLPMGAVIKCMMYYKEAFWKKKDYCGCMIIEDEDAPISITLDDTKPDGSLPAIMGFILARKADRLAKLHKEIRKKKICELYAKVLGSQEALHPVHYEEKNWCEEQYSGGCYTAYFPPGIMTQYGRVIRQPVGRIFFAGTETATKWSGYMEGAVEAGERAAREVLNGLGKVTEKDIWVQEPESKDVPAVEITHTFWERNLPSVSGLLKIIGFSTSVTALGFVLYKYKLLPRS
The experiment can be described thus: Inhibition of recombinant human MAO-A expressed in baculovirus infected BTI insect cells using p-tyramine as substrate incubated for 30 mins by Amplex red reagent based fluorescence analysis.

Experiment [3] is described as follows: Selectivity index, ratio of Ki for inhibition of recombinant human MAO-A to Ki for inhibition of recombinant human MAO-B using p-tyramine as substrate.

By Ki is commonly meant a measure of affinity in units of concentration, obtained from inhibition or displacement. Take `COc1ccc(C2=NN(C(=O)Cn3c(=O)oc4ccc(Cl)cc43)C(c3ccccc3)C2)cc1` (stereo unspecified): the Ki in experiment [1] amounted to 1.95 µM; in experiment [2] it was 0.004 µM. Further, in experiment [3], the Ratio Ki was 0.002.
With `COc1cccc(C2=NN(C(=O)Cn3c(=O)oc4ccc(C)cc43)C(c3ccccc3Cl)C2)c1` (stereo unspecified), the Ki in experiment [1] was found to be 24.3 µM; in experiment [2] it was 0.011 µM. In addition, the Ratio Ki in experiment [3] was 4.52 10^-4No_unit.
For `COc1ccccc1C1=NN(C(=O)Cn2c(=O)oc3ccc(Cl)cc32)C(c2ccccc2Cl)C1` (stereo unspecified) the same measures were 11 µM, 0.05 µM and 0.005.
On to `Cc1ccc(C2=NN(C(=O)Cn3c(=O)oc4ccccc43)C(c3ccccc3)C2)cc1` (stereo unspecified), for which the Ki turned out to be 5.55 µM in experiment [1] and 0.019 µM in experiment [2]. In addition, the Ratio Ki in experiment [3] was 0.003.
For `COc1ccc(C(/C=C/c2ccccc2Cl)=N/NC(=O)Cn2c(=O)oc3ccccc32)cc1` the same measures were 35 µM, 0.001 µM and 3.43 10^-5No_unit.
For `Cc1ccc(C2CC(c3ccccc3)=NN2C(=O)Cn2c(=O)oc3ccc(C)cc32)cc1` (stereo unspecified) the same measures were 5.22 µM, 0.008 µM and 0.002.
For `COc1ccc(C2=NN(C(=O)Cn3c(=O)oc4ccc(Cl)cc43)C(c3ccccc3Cl)C2)cc1` (stereo unspecified) the same measures were 25.6 µM, 0.065 µM and 0.003.
In the case of `COc1ccc(C2CC(c3ccccc3)=NN2C(=O)Cn2c(=O)oc3ccc(Cl)cc32)cc1OC` (stereo unspecified), the Ki in experiment [1] worked out at 50.2 µM; in experiment [2], 3 µM. For the same compound, the Ratio Ki in experiment [3] worked out at 0.06.
Regarding `COc1ccccc1C(/C=C/c1ccccc1Cl)=N/NC(=O)Cn1c(=O)oc2ccc(C)cc21`, the inhibition constant Ki in experiment [1] came out at 16.6 µM; in experiment [2], 0.011 µM. Further, the Ratio Ki in experiment [3] is 6.65 10^-4No_unit.
Regarding `COc1cccc(C2CC(c3ccccc3)=NN2C(=O)Cn2c(=O)oc3ccc(Cl)cc32)c1` (stereo unspecified), the Ki in experiment [1] was determined as 1 µM; in experiment [2], 0.985 µM. In addition, the Ratio Ki in experiment [3] turned out to be 0.985.
For `Cc1ccc(C2=NN(C(=O)Cn3c(=O)oc4ccc(C)cc43)C(c3ccccc3)C2)cc1` (stereo unspecified) the same measures were 29 µM, 0.05 µM and 0.002.
For `COc1cccc(/C=C/C(=N\NC(=O)Cn2c(=O)oc3ccccc32)c2ccccc2)c1` the same measures were 8.9 µM, 0.001 µM and 1.12 10^-4No_unit.
For `COc1cccc(C2CC(c3ccc(C)cc3)=NN2C(=O)Cn2c(=O)oc3ccc(Cl)cc32)c1OC` (stereo unspecified) the same measures were 91.3 µM, 0.51 µM and 0.006.
`COc1ccccc1C1=NN(C(=O)Cn2c(=O)oc3ccccc32)C(c2ccccc2Cl)C1` (stereo unspecified): the figures for the Ki in experiment [1] and in experiment [2] were 1.15 µM and 0.013 µM, respectively. The Ratio Ki in experiment [3] amounted to 0.011.
`COc1cccc(C2CC(c3ccc(C)cc3)=NN2C(=O)Cn2c(=O)oc3ccccc32)c1OC` (stereo unspecified): the values for the Ki in experiment [1] and in experiment [2] were 120 µM and 0.028 µM, respectively. The Ratio Ki in experiment [3] is 2.32 10^-4No_unit.
Consider `COc1ccc(C2=NN(C(=O)Cn3c(=O)oc4ccccc43)C(c3ccccc3)C2)cc1` (stereo unspecified), for which the Ki in experiment [1] was found to be 9 µM; in experiment [2] it was 0.011 µM. In addition, the Ratio Ki in experiment [3] was found to be 0.001.
Take `COc1cccc(C2=NN(C(=O)Cn3c(=O)oc4ccccc43)C(c3ccccc3Cl)C2)c1` (stereo unspecified): the inhibition constant (Ki) was 7.5 µM in experiment [1] and 0.06 µM in experiment [2]. Further, the Ratio Ki in experiment [3] worked out at 0.008.
As for `COc1ccc(C2=NN(C(=O)Cn3c(=O)oc4ccccc43)C(c3cccc(OC)c3OC)C2)cc1` (stereo unspecified), the Ki in experiment [1] is 255 µM; in experiment [2], 0.125 µM. Further, in experiment [3], the Ratio Ki is 4.9 10^-4No_unit.
Take `COc1cccc(C2CC(c3ccccc3)=NN2C(=O)Cn2c(=O)oc3ccc(C)cc32)c1` (stereo unspecified): the figures for the Ki in experiment [1] and in experiment [2] were 21.3 µM and 0.005 µM, respectively. Moreover, the Ratio Ki in experiment [3] is 2.35 10^-4No_unit.
For `COc1ccc(C2=NN(C(=O)Cn3c(=O)oc4ccc(Cl)cc43)C(c3cccc(OC)c3OC)C2)cc1` (stereo unspecified) the same measures were 8000 µM, 1.55 µM and 1.94 10^-4No_unit.
As to `Cc1ccc(C2=NN(C(=O)Cn3c(=O)oc4ccc(Cl)cc43)C(c3ccccc3)C2)cc1` (stereo unspecified), the values for the Ki in experiment [1] and in experiment [2] were 55.6 µM and 0.02 µM, respectively. In experiment [3], the Ratio Ki is 3.6 10^-4No_unit.
As to `COc1ccccc1C1=NN(C(=O)Cn2c(=O)oc3ccc(C)cc32)C(c2ccccc2Cl)C1` (stereo unspecified), the Ki in experiment [1] came to 15.9 µM; in experiment [2] it was 0.308 µM. For the same compound, in experiment [3], the Ratio Ki came to 0.019.
For `COc1ccc(C2=NN(C(=O)Cn3c(=O)oc4ccc(C)cc43)C(c3ccccc3)C2)cc1` (stereo unspecified) the same measures were 7.5 µM, 0.8 µM and 0.107.
As to `COc1ccccc1C(/C=C/c1ccccc1Cl)=N/NC(=O)Cn1c(=O)oc2ccccc21`, the values for the Ki in experiment [1] and in experiment [2] were 60 µM and 0.004 µM, respectively. Besides, the Ratio Ki in experiment [3] was 6.66 10^-5No_unit.
`COc1cccc(C2CC(c3ccc(C)cc3)=NN2C(=O)Cn2c(=O)oc3ccc(C)cc32)c1OC` (stereo unspecified): the results for the Ki in experiment [1] and in experiment [2] were 52 µM and 0.266 µM, respectively. Also, in experiment [3], the Ratio Ki is 0.005.
For `Cc1ccc(C2CC(c3ccccc3)=NN2C(=O)Cn2c(=O)oc3ccc(Cl)cc32)cc1` (stereo unspecified) the same measures were 8.55 µM, 0.04 µM and 0.005.
For `Cc1ccc(C2CC(c3ccccc3)=NN2C(=O)Cn2c(=O)oc3ccccc32)cc1` (stereo unspecified) the same measures were 8.95 µM, 0.004 µM and 0.000446.
As to `COc1cccc(C2=NN(C(=O)Cn3c(=O)oc4ccc(Cl)cc43)C(c3ccccc3Cl)C2)c1` (stereo unspecified), the values for the inhibitory constant (Ki) in experiment [1] and in experiment [2] were 2.55 µM and 0.12 µM, respectively. In addition, the Ratio Ki in experiment [3] is 0.05.
For `COc1ccc(C2CC(c3ccccc3)=NN2C(=O)Cn2c(=O)oc3ccc(C)cc32)cc1OC` (stereo unspecified) the same measures were 41.3 µM, 0.17 µM and 0.004.
For `O=C(Cn1c(=O)oc2ccccc21)N/N=C(\C=C\c1ccccc1)c1ccccc1` the same measures were 19 µM, 0.001 µM and 5.26 10^-5No_unit.
For `COc1ccc(C2=NN(C(=O)Cn3c(=O)oc4ccc(C)cc43)C(c3ccccc3Cl)C2)cc1` (stereo unspecified) the same measures were 0.4 µM, 0.018 µM and 0.045.
Regarding `COc1ccccc1C(/C=C/c1ccccc1)=N/NC(=O)Cn1c(=O)oc2ccc(C)cc21`, the Ki was 54 µM in experiment [1] and 0.012 µM in experiment [2]. Further, the Ratio Ki in experiment [3] was 2.22 10^-4No_unit.
